Experimental findings from publication PMC8802628, “Selective activation of PFKL suppresses the phagocytic oxidative burst” (Cell, 2021) are described below.

The subject of assay [1] is primary human monocytes and human monocytic THP-1 cells. Put plainly: GSDMD-dependent pyroptosis, LDH release. Type of assay: cell-based. Conditions: induced by nigericin, cytoplasmic LPS, or cytoplasmic poly(dA-dT). The protocol:
Primary human monocytes were primed with 1 μg/mL ultrapure LPS and 1μg/mL Pam3CSK4 for 3 h. THP-1 cells were primed with 1 μg/mL Pam3CSK4 for 4 h. Primed cells (1 × 10^5) were treated for 1 h with DMSO vehicle, 5 μM LDC7559 (unless indicated otherwise), 10 μM MCC950, or 50 μM VX765, and then for 1 h with 10 μg/mL nigericin, or 25 μg/mL LPS (electroporated using the NEON electroporation system; ThermoFisher Scientific), or they were transfected over 3 h with 1 μg/mL poly(dA-dT) using lipofectamine 2000 (0.5 μL/well).
LDH released into the culture medium was measured 1-3 h post-activation using a CellTox Green Cytotoxicity assay (Promega). IL-1β secretion was measured using a MSD Cytokine Assay, 96-well multi-array Tissue Culture Kit (Meso Scale Discovery). For immunoblotting, monocytes (2 × 10^6) were treated with 10-50 μM LCD7559 or 50 μM VX765 and electroporated with 25 μg/mL LPS using the NEON electroporation system. Cells were lysed after 1 h using lysis buffer (50 mM Tris pH 7.4, 150 mM NaCl, 10% glycerol, 1% NP-40, 1 mM MgCl and 1X Roche cOmplete protease inhibitor cocktail) and protein concentration was determined via BCA protein assay (Peirce). Antibodies for immunoblotting were GSDMD (L60, Cell Signaling Technologies), cleaved GSDMD-Asp275 (E7H9G, Cell Signaling Technologies) and GAPDH (14C10, Cell Signaling Technologies).

A further assay has as its system E. coli. Put plainly: Phagocytosis assay: E. coli C.F.U. recovered from PMNs. It is filed as cell-based, human. Conditions: neutrophils pretreated 30 min. The protocol: Neutrophils (1 × 10^6) were cultured in 6-well tissue in RPMI medium containing DMSO vehicle, 0.5 μM NA-11, 0.5 μM NA-4, 100 μM Apocynin or 100 μM thionicotinamide (TN) for 30 min. E. coli grown in LB broth overnight (2 mL) were opsonized with human serum (1 mL pooled from three donors) for 1 h at room temperature. Opsonized bacteria were washed with PBS, resuspended in LB broth to an OD600of 0.1 and then added to cultured neutrophils at an MOI of 1 for 30 min. Cells were washed with medium three times and then cultured with 300 μg/mL gentamicin for 2 h to kill any extracellular bacteria. Cells were then washed again, twice with medium and once with PBS. To release phagocytosed bacteria, neutrophils were lysed in 0.05% saponin in PBS. Lysates were passed through a 25’ gauge needed several times and the number of viable phagocytosed bacteria was determined by colony counting.

In the case of `COc1ccccc1-c1cc2n(n1)Cc1ccc(NC(C)=O)cc1OC2` [LDC7559, reference compound], the “GSDMD-dependent pyroptosis (LDH release)” value in assay [1] is given as “did not alter GSDMD-dependent pyroptosis”.
On to `CC(=O)Nc1ccc2c(c1)OCc1cc(-c3ccccc3C#CCCCO)nn1C2` [NA-11], for which the “killing of phagocytosed bacteria (bacterial colonies recovered)” value in the assay with E. coli is on record as “produced more bacterial colonies than control neutrophils”.
